Patent publication US9120795B2, “Crystalline form of a β-lactamase inhibitor” (Cubist Pharmaceuticals, Inc., priority 2013, dated 2015)

What was measured:
[1] = test system: Eco isogenic, β-Lactamase none; test: Synergy MIC (sMIC) assay; format: cell-based, E. coli; details: β-Lactam none
Procedure: The synergy MIC (sMIC) assay determines the concentration of the BLI required to potentiate the activity of a fixed concentration of a β-lactam antibiotic against β-lactamase producing bacterial strains. The experimental protocol was performed according to Clinical and Laboratory Standards Institute (CLSI) guidelines with modifications as described below (CLSI guidelines can be derived from the CLSI document M07-A9 published in January 2012: “Methods for Dilution Antimicrobial Susceptibility Tests for Bacteria That Grow Aerobically; Approved Standard-Ninth Edition”). […]
Plates were incubated for 18-20 hours at 37° C. with aeration (200 rpm). Following incubation, growth was confirmed visually placing plates over a viewing apparatus (stand with a mirror underneath) and then OD600 was measured using a SpectraMax 340PC384 plate reader (Molecular Devices, Sunnyvale, Calif.). Growth was defined as turbidity that could be detected with the naked eye or achieving minimum OD600 of 0.1. sMIC values were defined as the lowest concentration producing no visible turbidity. […]

KPC-2 β-lactamase = KPC-2 β-lactamase (Klebsiella pneumoniae, UniProt Q9F663); test: Inhibition kinetics with nitrocefin as reporter substrate; format: biochemical; details: 100 μM nitrocefin, 1×PBS pH 7.4, 25° C.
Sequence of KPC-2 β-lactamase (Q9F663 25-293 limits assumed): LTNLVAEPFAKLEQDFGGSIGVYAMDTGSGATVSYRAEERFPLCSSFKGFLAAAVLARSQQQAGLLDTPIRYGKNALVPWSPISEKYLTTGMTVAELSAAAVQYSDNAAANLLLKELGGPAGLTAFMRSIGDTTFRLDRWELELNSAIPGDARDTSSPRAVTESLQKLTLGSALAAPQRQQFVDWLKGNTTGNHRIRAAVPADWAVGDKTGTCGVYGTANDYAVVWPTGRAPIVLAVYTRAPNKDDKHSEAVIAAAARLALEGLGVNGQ
Procedure: Inhibition or inactivation of KPC-2 by test inhibitors was assessed using 100 μM nitrocefin (NCF) as a reporter substrate. Assays were performed in 1×PBS pH 7.4, 0.1 mg/ml BSA, in 96-well half area plates, 50 μl reaction volume. NCF was dissolved in DMSO and diluted in assay buffer. Test inhibitors were dissolved in water or DMSO and serially diluted in the assay with final concentrations between 2000-0.195 μM.
The enzyme activity in the presence of varying concentrations of test inhibitor was determined by monitoring the hydrolysis of NCF spectrophotometrically at 486 nm, for 5 minutes, 25° C., using a SpectraMax Plus384 microplate reader with SoftMax Pro software (Molecular Devices). Data analysis was performed using GraphPad Prism (GraphPad Software, Inc.).
Progress curves were fit to a first-order rate decay equation (Eq. 1) to determine kobserved (kobs).
kobs vs. inhibitor concentration [I] curves were then fit to Eq.2 to determine the inhibitor dissociation constant (K) and the first order rate constant of enzyme inactivation at infinite inhibitor concentration (kinact). […] Yt=V0*(1−e^(−kobs*t))/kobs Eq. 1 Where Y is the absorbance at time t, V0 is the uninhibited enzyme velocity, kobs is the observed rate constant of the enzyme inactivation. kobs=kinact*[I]/([I]+K(1+S/Km)) Eq. 2 Where S is the NCF concentration, Km is the KPC-2 Km for NCF.

Structure (SMILES): O=C1N2C[C@@H](CC[C@H]2c2nnco2)N1OS(=O)(=O)[O-].[Na+] [Hydrate 1, sodium (2S,5R)-2-(1,3,4-oxadiazol-2-yl)-7-oxo-1,6-diazabicyclo[3.2.1]octan-6-yl sulfate]
- sMIC [1]: F (F = ≧128 μg/mL)
- Kinact/K (KPC-2 β-lactamase): 134000 to 163000 M⁻¹ s⁻¹
